“And” between values parts separate entries of the source, which are not always exact repeats. Identical values can stand only once. Counter-ions that a name gives are not always drawn.

The values below come from patent US20150133537A1, “3 - (1' - ADAMANTYL) - 1 - AMINOMETHYL - 3, 4 - DIHYDRO - 5, 6 - DIHYDROXY - 1H - 2 - BENZOPYRAN FOR USE IN THE TREATMENT OF A DISEASE ASSOCIATED WITH BETA-AMYLOID INDUCED TOXICITY” (The University of Manchester, priority 2012, published 2015).

In data set [1] the test system is SH-SY5Y cells treated with extracellular Aβ42. The data set can be described thus: MTT assay of cell viability in the presence of extracellular Aβ42. It is filed as cell-based. To be noted: for cell viability (MTT): hydrochloride. On the technique in general: Formazan colour is commonly taken as a measure of viable cells.
Description: The compound and target peptide were added simultaneously and incubated at 37° C. followed by cellular viability measurement using MTT assay. […] Data are represented as mean percentage viability, with no treatment controls set as 100%, n=3 and the error bars represent standard error.
The MTT assay provides a colorimetric analysis of cell viability by the conversion of MTT into formazan product by the mitochondrial enzyme succinate dehydrogenase. For cytotoxicity experiments cells were washed twice with Dulbecco's PBS followed by trypsinisation of cells, centrifugation at 1800 rpm and seeding the cells on 96 well flat bottom plates (Costar) in Opti-MEM media without phenol red supplemented with 1.5% FCS, 1% L-glutamine, 1% Penicillin-streptomycin (P/S) and 1% non essential amino acids (NEAA).
The cells were seeded at 1×10^5/ml density in a 96 well flat bottom plate (Costar) and incubated for 24 hr in a humidified incubator at 37° C. with 5% CO2.
After 24 hr; 50 μl of the media was removed and 10 μl of MTT (2.5 mg/ml) was added to the cells. This was followed by incubation for further 4 hr at 37° C. and 5% CO2. MTT reduction was characterized by adding 100 μl solubilization solution containing 50 ml isopropyl alcohol and 197 μl of 37% HCl. The cytotoxicity was determined by measuring the absorbance at 570 nm using Polarstar BMG labtech plate reader.
For the MTT cytotoxicity assay, A-77636 was diluted in the Opti-MEM media supplemented with 1.5% FCS, 1% P/S, 1% L-glutamine and 1% NEAA. The target compound was added to the SH-SY5Y cells at concentrations of 100 μM, 10 μM, 1 μM, 100 nM, 10 nM and 1 nM.
The cells were seeded at 1×10^5/ml density in a 96 well flat bottom plate (Costar) and incubated for 24 hr in a humidified incubator at 37° C. with 5% CO2. […] The cells were then incubated for 24 hr in the humidified incubator at 37° C. in 5% CO2.
After 24 hr; 500 of the media was removed and 10 μl of MTT (2.5 mg/ml) was added to the cells. This was followed by incubation for further 4 hr at 37° C. and 5% CO2. MTT reduction was characterized by adding 100 μl solubilization solution containing 50 ml isopropyl alcohol and 197 μl of 37% HCl. The 96 well plates were kept at room temperature for 6 hr to dissolve the formazan crystals. The cytotoxicity was determined by measuring the absorbance at 570 nm using Polarstar BMG labtech plate reader.
For data set [2] the following is noted: known, reference 16; cited from earlier work.
Data set [3] relates to Parkinson's disease in animal models. To be noted: known, reference 9; cited from earlier work.
Data set [4] has as its system SHSY5Y cells treated with Aβ42 (1 μM). The data set can be described thus: Cyto Tox-One LDH (lactate dehydrogenase) release assay.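 For all read-outs here: fluorescent readout of resorufin formed from resazurin in proportion to released LDH (excitation 560 nm, emission 590 nm), with detergent-lysed dead cells taken as 100% maximal release.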 To be noted: for LDH release: SHSY5Y cells, Exp 1-3 and Avg, hydrochloride. The data set is classed as cell-based. A general note: LDH in the medium is a marker of cell lysis.
Excerpt: The LDH assay provides the measure of cytotoxicity, wherein the amount of LDH released quantifies cell membrane damage, caused either by apoptosis or necrosis^13,15. The commercially available Cyto Tox-One assay (Promega; G7890) was used here which provides a fluorescent measure of LDH release, wherein the reduction of resazurin dye to resofurin is coupled through enzymatic conversion involving NADH. The generation of fluorescent dye resofurin is proportional to the amount of LDH release.
For the LDH cytotoxicity assay, A-77636 was diluted in the Opti-MEM media supplemented with 1.5% FCS, 1% P/S, 1% L-glutamine and 1% NEAA. A-77636 was added to the SHSY5Y cells at concentrations of 100 μM, 10 μM, 1 μM, 100 nM, 10 nM and 1 nM.
The cells were seeded at 1×10^5/ml density in a 96 well black, flat bottom plate (BD Biosciences) and incubated for 24 hr in a humidified incubator at 37° C. with 5% CO2. […] The final concentration of the target peptide and A-77636 within the cells was 1 μM:100 μM, 1 μM:10 μM, 1 μM:1 μM, 1 μM:100 nM, 1 μM:10 nM, and 1 μM:1 nM respectively. The cells were then incubated for 24 hr in the humidified incubator at 37° C. in 5% CO2.
After 24 hr, the 96 well plates were removed from the incubator and equilibrated at 22° C. for 30 min. The Cyto Tox-One reagent was prepared according to the manufacturer's protocol by equilibrating the substrate mix at 22° C. and thawing the assay buffer at 37° C. in a water bath. This was followed by adding 11 ml of assay buffer to each vial of substrate mix. 100 μl of Cyto Tox-One reagent was added to each well. The preparation and addition of Cyto Tox-One reagent was undertaken in the dark to avoid increased background fluorescence and stored at −20° C. until required. The cells were further incubated at 22° C. for 10 min followed by addition of stop solution to the wells in the same order as that of the Cyto Tox-One reagent to avoid increased variation in the results. The stop solution stops formation of fluorescent product resofurin. The maximum LDH release (set as 100%) for each experiment was determined by adding 2 μl of lysis solution (9% triton X 100, Promega) to the cells prior to the addition of Cyto Tox-One reagent, providing a dead cell control. […] The 96 well plates were then kept on the shaker for 10 sec and the fluorescence was measured immediately with an excitation at 560 nm and emission at 590 nm using a Polarstar BMG plate reader.

Consider `Br.C=CCN1CCc2c(cc(O)c(O)c2Br)[C@@H](c2ccccc2)C1` [Compound A, R(+)-6-Bromo-7,8-dihydroxy-3-allyl-1-phenyl-2,3,4,5-tetrahydro-1H-3-benzazepine hydrobromide, reference compound], for which, in data set [1] (D1 receptor agonist screen, SH-SY5Y cells, Aβ42 (1 μM), 24 hr, MTT), the “inhibition of Aβ42 toxicity” value was “partial inhibition”. In addition, the “cellular viability (MTT)” value in data set [1] (D1 receptor agonist screen, SH-SY5Y cells, added simultaneously with Aβ42 (1 μM), 24 hr, no treatment controls = 100%, p<0.05) amounted to 81%.
As for `NC[C@@H]1O[C@H](C23CC4CC(CC(C4)C2)C3)Cc2c1ccc(O)c2O` [Compound A-77636, (1R,3S) 3-(1′-adamantyl)-1-aminomethyl-3,4-dihydro-5,6-dihydroxy-1H-2-benzopyran hydrochloride], the “crossing of the blood-brain barrier” value in data set [2] is listed as “cross the blood-brain barrier”. In data set [1] (1 μM A-77636, 1 μM Aβ42, MTT, Table 1), the “inhibition of the toxic effects of Aβ42” value was “capable of inhibiting the toxic effects of Aβ42”. The “activity against Aβ42 toxicity in MTT assay” value was “inactive” in data set [1] (A-77636 at 1 nM, SH-SY5Y cells with 1 μM Aβ42) and “active” in data set [1] (A-77636 from 10 nM to 10 μM, SH-SY5Y cells with 1 μM Aβ42). In data set [1] (A-77636 at 100 μM, SH-SY5Y cells with 1 μM Aβ42), the “toxicity in MTT assay” value was “toxic”. Moreover, the “cell viability (MTT)” value in data set [1] (SH-SY5Y cells, 1 μM Aβ42 + 1 μM A-77636, 24 hr, Aβ42 −ve cells = 100%, Experiments 1-3 and Average) was 82% and 69% and 92%; in data set [1] (SH-SY5Y cells, 1 μM Aβ42 + 1 μM A-77636, 24 hr, Aβ42 −ve cells = 100%, Experiments 1-3 and Average, mean), 81%; in data set [1] (SHSY5Y cells, 1 μM Aβ42 + 1 nM A-77636, 24 hr, Exp 1-3 and Avg), 71% and 67%; in data set [1] (SHSY5Y cells, 1 μM Aβ42 + 1 nM A-77636, 24 hr, Exp 1-3 and Avg, mean of three experiments), 68%; in data set [1] (SHSY5Y cells, 1 μM Aβ42 + 10 nM A-77636, 24 hr, Exp 1-3 and Avg) it was 80% and 74% and 84%; in data set [1] (SHSY5Y cells, 1 μM Aβ42 + 10 nM A-77636, 24 hr, Exp 1-3 and Avg, mean of three experiments), 79%. In addition, the “cell viability (MTT)” value was 78% and 74% and 81% in data set [1] (SHSY5Y cells, 1 μM Aβ42 + 100 nM A-77636, 24 hr, Exp 1-3 and Avg); 77% in data set [1] (SHSY5Y cells, 1 μM Aβ42 + 100 nM A-77636, 24 hr, Exp 1-3 and Avg, mean of three experiments); 87% and 90% and 86% in data set [1] (SHSY5Y cells, 1 μM Aβ42 + 1 μM A-77636, 24 hr, Exp 1-3 and Avg (Table 2)); 84% and 81% and 86% in data set [1] (SHSY5Y cells, 1 μM Aβ42 + 10 μM A-77636, 24 hr, Exp 1-3 and Avg); 83% in data set [1] (SHSY5Y cells, 1 μM Aβ42 + 10 μM A-77636, 24 hr, Exp 1-3 and Avg, mean of three experiments); 9% and 4% in data set [1] (SHSY5Y cells, 1 μM Aβ42 + 100 μM A-77636, 24 hr, Exp 1-3 and Avg). Moreover, in data set [1] (SHSY5Y cells, 1 μM Aβ42 + 100 μM A-77636, 24 hr, Exp 1-3 and Avg, mean of three experiments), the “cell viability (MTT)” value is reported as 6%. The “activity against Parkinson's disease in animal models” value in data set [3] was “activity against Parkinson's disease”. Also, the “toxicity in LDH assay” value in data set [4] (A-77636 at 100 μM, 1 μM Aβ42) is reported as “possibly toxic”. In addition, the LDH release in data set [4] (1 μM Aβ42 + 1 nM A-77636, 24 hr) was 35% and 38% and 61%; in data set [4] (1 μM Aβ42 + 1 nM A-77636, 24 hr, mean) it was 45%; in data set [4] (1 μM Aβ42 + 10 nM A-77636, 24 hr), 35% and 39% and 56%; in data set [4] (1 μM Aβ42 + 10 nM A-77636, 24 hr, mean), 43%; in data set [4] (1 μM Aβ42 + 100 nM A-77636, 24 hr) it was 20% and 23% and 32%; in data set [4] (1 μM Aβ42 + 100 nM A-77636, 24 hr, mean), 25%. Also, the LDH release in data set [4] (1 μM Aβ42 + 1 μM A-77636, 24 hr) is 27% and 48% and 43%; in data set [4] (1 μM Aβ42 + 1 μM A-77636, 24 hr, mean), 39%; in data set [4] (1 μM Aβ42 + 10 μM A-77636, 24 hr), 33% and 47% and 52%; in data set [4] (1 μM Aβ42 + 10 μM A-77636, 24 hr, mean), 44%; in data set [4] (1 μM Aβ42 + 100 μM A-77636, 24 hr, LDH max (dead cells) = 100), 61% and 53% and 64%. Besides, the “effect on Aβ42 toxicity in LDH assay” value in data set [4] (all concentrations from 100 μM to 1 nM, 1 μM Aβ42) is on record as “reduces Aβ42 toxicity”.
